Results on 16 compounds are retold here after ChEMBL document CHEMBL2040789, “Optimization of the Central Core of Indolinone-Acetic Acid-Based CRTH2 (DP2) Receptor Antagonists” (ACS Med Chem Lett, 2011).

In series [1] the target is T1, Prostaglandin D2 receptor 2 (Homo sapiens, UniProt Q9Y5Y4).
T1 sequence (Q9Y5Y4 whole entry): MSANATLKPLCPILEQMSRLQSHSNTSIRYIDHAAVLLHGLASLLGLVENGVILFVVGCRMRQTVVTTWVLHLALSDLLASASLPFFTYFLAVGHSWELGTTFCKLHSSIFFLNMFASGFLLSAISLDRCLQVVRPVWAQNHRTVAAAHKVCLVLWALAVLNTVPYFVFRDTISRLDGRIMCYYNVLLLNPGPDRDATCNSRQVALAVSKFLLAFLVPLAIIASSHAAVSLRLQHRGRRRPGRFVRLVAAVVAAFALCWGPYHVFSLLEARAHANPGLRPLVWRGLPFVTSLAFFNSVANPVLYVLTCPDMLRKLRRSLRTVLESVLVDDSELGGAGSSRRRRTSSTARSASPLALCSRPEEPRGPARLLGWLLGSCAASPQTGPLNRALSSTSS
Put plainly: Displacement of [3H]PGD2 from human CRTH2 receptor expressed in CHO cells after 90 mins by scintillation proximity assay. Type of series: cell-based.

Series [2] is described as follows: Oral bioavailability in C57BL/6 mouse at 5 mg/kg. Type of series: ADME, organism-based. As to conditions: in vivo.
The nature of series [3]: Clearance in C57BL/6 mouse at 1 mg/kg, iv and 5 mg/kg, po. Type of series: ADME, organism-based. Conditions: in vivo.
Series [4] in a line: Drug degradation at pH 7.4 after 24 hrs. Conditions: buffer, read-out: Drug degradation. It is filed as physicochemical.
Series [5] is described as follows: Drug degradation at pH 8 after 24 hrs. It is filed as physicochemical. As to conditions: buffer, read-out: Drug degradation.
Series [6] in a line: Half life in human plasma. It is filed as ADME, cell-free.
The nature of series [7]: Stability assessed as drug degradation by measuring 2,2'-(5-chloro-3-(2-fluorobenzylcarbamoyl)-2-oxoindoline-1,3-diyl)diacetic acid formation at pH > 6 after 24 hrs. It is filed as physicochemical.
A short description of series [8]: Stability assessed as drug degradation by measuring 2-(5-chloro-3-(2-(2-fluorobenzylamino)-2-oxoethyl)-2-oxoindolin-1-yl)acetic acid formation at pH > 6 after 24 hrs. Type of series: physicochemical.
Series [9] in a line: Fraction unbound in human plasma. It is filed as ADME, cell-free.
Series [10] in a line: Apparent permeability of the compound in human Caco2 cells. It is filed as ADME, cell-based. Conditions: Caco-2. Background: Caco-2 cells form a polarised layer with tight junctions and transporters.
Series [11] in a line: Clearance in Sprague-Dawley rat at 1 mg/kg, iv and 5 mg/kg, po. Type of series: ADME, organism-based. Conditions: in vivo.
The nature of series [12]: Oral bioavailability in Sprague-Dawley rat at 5 mg/kg. Type of series: ADME, organism-based. Conditions: in vivo.
A short description of series [13]: Drug degradation at pH 9 after 24 hrs. As to conditions: buffer, read-out: Drug degradation. It is filed as physicochemical.
Series [14] can be described thus: Drug degradation in human plasma after 24 hrs. It is filed as ADME, cell-free. Conditions: read-out: Drug degradation.
Series [15] can be described thus: Fraction unbound in rat plasma. Type of series: ADME, cell-free.
Series [16] is described as follows: Fraction unbound in mouse plasma. Type of series: ADME, cell-free.
In series [17] the test system is Liver microsomes. Put plainly: Clearance in human liver microsomes. Type of series: ADME, Microsome.
Series [18] relates to Hepatocyte. Kind of series: Clearance in human hepatocytes. Type of series: ADME, cell-based.
Series [19] in a line: Oral bioavailability in guinea pig. As to conditions: in vivo. Type of series: ADME, organism-based, Cavia porcellus.
Series [20] in a line: Oral bioavailability in monkey. It is filed as ADME, organism-based, Macaca mulatta. As to conditions: rhesus monkey, in vivo.
Series [21] in a line: Oral bioavailability in dog. Conditions: in vivo. It is filed as ADME, organism-based, Canis lupus familiaris.
Series [22] in a line: Solubility of the compound in simulated gastric fluid. It is filed as physicochemical.
Series [23] can be described thus: Bioavailability in Sprague-Dawley rat administered by portal vein. Conditions: in vivo. Type of series: ADME, organism-based.
A short description of series [24]: Bioavailability in Sprague-Dawley rat after intraduodenal administration. It is filed as ADME, organism-based. Conditions: in vivo.
Series [25] is described as follows: AUC in C57BL/6 mouse at 5 mg/kg, po. Also noted: dose 5 mg/kg, route oral. Conditions: plasma. Type of series: ADME, organism-based.
The nature of series [26]: Solubility of the compound in fasted state simulated intestinal fluid.

Converted amounts (≈) assume the structure as drawn.

Broadly, the Ki is a measure of affinity in units of concentration, obtained from inhibition or displacement. Consider `CCN1C(=O)N(Cc2cc(Cl)ccc2F)C(=O)[C@]12C(=O)N(CC(=O)O)c1ccc(Cl)cc12`, for which affinity in [1] was put at a Ki of 260 nM.

As for `O=C(O)CN1C(=O)C2(NC(=O)N(Cc3cc(Cl)ccc3F)C2=O)c2cc(Cl)ccc21` (centres undefined), the affinity in series [1], expressed as Ki, was 28 nM.

The compound `CC(C)c1nc(CN2C(=O)N(C)C3(C2=O)C(=O)N(CC(=O)O)c2ccc(Cl)cc23)cs1` (centres undefined) came in with an inhibitory constant (Ki) in series [1] of 490 nM.

A word on the bioavailability: it is the share of a dose that reaches the circulation, judged against a reference dose that is usually intravenous. `CN1C(=O)N(Cc2csc(-c3ccccc3)n2)C(=O)C12C(=O)N(CC(=O)O)c1ccc(Cl)cc12` (centres undefined) displayed an inhibition constant Ki in series [1] of 16 nM. In [2], this compound yielded a bioavailability of less than 5%. Besides, the clearance in series [3] was 60.5 mL/min/kg.

As for `COc1c(C)cnc(CN2C(=O)N(C)C3(C2=O)C(=O)N(CC(=O)O)c2ccc(Cl)cc23)c1C` (centres undefined), the Ki in series [1] amounted to 280 nM.

In [1], `CCCN1C(=O)N(Cc2cc(Cl)ccc2F)C(=O)[C@]12C(=O)N(CC(=O)O)c1ccc(Cl)cc12` gave a Ki of 110 nM.

`O=C(O)CN1C(=O)C2(NC(=O)N(Cc3ccccc3F)C2=O)c2cc(Cl)ccc21` (centres undefined): the Ki in [1] turned out to be 390 nM.

Take `Cc1onc(-c2ccccc2)c1CN1C(=O)NC2(C1=O)C(=O)N(CC(=O)O)c1ccc(Cl)cc12` (centres undefined): the inhibitory constant (Ki) in [1] was determined as 7 nM.

In series [1], `Cc1onc(-c2ccccc2)c1CN1C(=O)N(C)C2(C1=O)C(=O)N(CC(=O)O)c1ccc(Cl)cc12` (centres undefined) gave a Ki of 110 nM.

One may read the half-life as the time in which the quantity being followed falls by half. Take `O=C(O)CN1C(=O)[C@@]2(CC(=O)N(Cc3ccccc3F)C2=O)c2cc(Cl)ccc21`: the degraded at 24 h is 25% in series [4] and 50% in series [5]. The same compound had a half-life in [6] of 1 h. Moreover, the Stability entry in [7] and in [8] was “Unstable” throughout.

`CN1C(=O)N(Cc2nc3ccccc3s2)C(=O)C12C(=O)N(CC(=O)O)c1ccc(Cl)cc12` (centres undefined) had a Ki in series [1] of 750 nM.

The term fraction unbound denotes free concentration divided by total concentration. The Papp is a coefficient for how fast a substance crosses the barrier. As to `O=C(O)CN1C(=O)[C@@]2(CC(=O)N(Cc3cc(Cl)ccc3F)C2)c2cc(Cl)ccc21`, in series [9], the fraction unbound is less than 0.01. Also, the apparent permeability coefficient (Papp) in series [10] is 1.8 ×10⁻⁶ cm/s. In addition, in series [11], the clearance is 12 mL/min/kg. The compound also returned a bioavailability in series [12] of 5%. The degraded at 24 h in series [13] is less than 5%. In addition, the metabolised at 24 h in series [14] is less than 15%.

As usually defined, the solubility is how much of the substance goes into solution per volume. As usually defined, the AUC is concentration integrated over time. The compound `O=C(O)CN1C(=O)[C@@]2(NC(=O)N(Cc3cc(Cl)ccc3F)C2=O)c2cc(Cl)ccc21` displayed a Ki in series [1] of 15 nM. The fraction unbound in series [9] turned out to be 0.023; in [15], 0.03; in series [16], 0.063. Moreover, in [10], the apparent permeability coefficient (Papp) was 0.2 ×10⁻⁶ cm/s. The clearance is 2.5 mL/min/kg in series [11] and 13.3 mL/min/kg in series [3]. The CLH in [17] is less than 1 µg/mL/h; in series [18] it was 2 µg/mL/h. In addition, the bioavailability was 6% in series [12]; 9% in series [2]; 7% in series [19]; 10% in series [20]; 71% in series [21]; 90% in [23]. This compound also had a bioavailability in series [24] of 11%. Moreover, the solubility in [22] was 10 µg/mL (≈ 22.1 µM); in series [26] it was 1500 µg/mL (≈ 3320 µM). Besides, the degraded at 24 h in series [5] is less than 5%; in series [13], 45%. For the same compound, the metabolised at 24 h in series [14] was less than 15%. The AUC in [25] was 580 ng·h/mL.

For the compound `CN1C(=O)N(Cc2cc(F)ccc2F)C(=O)C12C(=O)N(CC(=O)O)c1ccc(Cl)cc12` (centres undefined), the affinity in series [1], expressed as Ki, was 390 nM.

Compound `CN1C(=O)N(Cc2cn(-c3ccccc3)nc2-c2ccccc2)C(=O)C12C(=O)N(CC(=O)O)c1ccc(Cl)cc12` (centres undefined) yielded a Ki in series [1] of 96 nM.

`O=C(O)CN1C(=O)[C@@]2(CC(=O)N(Cc3cc(Cl)ccc3F)C2=O)c2cc(Cl)ccc21`: in [10], the Papp worked out at 26 ×10⁻⁶ cm/s. This compound also showed a half-life in series [6] of 1 h.
